The experiment in a line: Malondialdehyde scavenging activity in iron/ascorbate-induced oxidation in PC liposomes at 10 mM by TBARS test. It counts as functional.

SMILES strings stand for the structures. Calls of active or inactive are those of the source. The calls are words filed in the database; no cut-off is given here. Residues, ends and D or L forms follow the SMILES beside them. *: point of attachment. NHNH2 = NN*

`NNC(=O)CNC(=O)OCc1ccccc1`: the outcome was Active.

Turning to `CC(C)CCCC(C)[C@H]1CCC2C3CC=C4C[C@@H](OC(=O)N[C@@H](Cc5c[nH]cn5)C(=O)NN)CC[C@]4(C)C3CC[C@@]21C` (some centres undefined), the result was Active.

On to `NNC(=O)[C@H](Cc1c[nH]cn1)NC(=O)OCc1ccccc1`, for which the outcome was Active.

Regarding `NCCC(=O)N[C@@H](Cc1c[nH]cn1)C(=O)O`, the outcome was Active.

In the case of `NCC(=O)NN`, the outcome was Active.

Turning to `NNC(=O)[C@@H](N)Cc1c[nH]cn1`, the result was Active.

In the case of `NNC(=O)[C@H](Cc1c[nH]cn1)NC(=O)[C@@H](N)Cc1ccccc1` (H-Phe-His-NHNH2), the outcome was Active.

For the molecule `Cc1c(C)c2c(c(C)c1OC(=O)CCC(=O)N[C@@H](Cc1c[nH]cn1)C(=O)NN)CCC(C)(CCCC(C)CCCC(C)CCCC(C)C)O2` (some centres undefined), the outcome was Active.

Regarding `CC(C)C[C@H](N)C(=O)N[C@@H](Cc1c[nH]cn1)C(=O)NN` (H-Leu-His-NHNH2), the outcome was Active.
